Test results published in article PMC9643506 (Scientific Reports, 2022).
Read-outs that look alike come from different tables or passages of the source. Non-standard residues stand in square brackets, D forms with d. Residues, ends and D or L forms follow the SMILES beside them. No end group written: not given here. d2Nal = N[C@H](Cc1ccc2ccccc2c1)C(=O)O; αMeF = C[C@](N)(Cc1ccccc1)C(=O)O

Assays:
B1R = target: T1, B1R (Homo sapiens, UniProt P46663); test: IP-one (intracellular IP1) assay in T-REx 293/B1R cell line; format: cell-based
T1 construct: Thermo Fisher Scientific (T-REx 293 cells)
T1 sequence (P46663 1-353): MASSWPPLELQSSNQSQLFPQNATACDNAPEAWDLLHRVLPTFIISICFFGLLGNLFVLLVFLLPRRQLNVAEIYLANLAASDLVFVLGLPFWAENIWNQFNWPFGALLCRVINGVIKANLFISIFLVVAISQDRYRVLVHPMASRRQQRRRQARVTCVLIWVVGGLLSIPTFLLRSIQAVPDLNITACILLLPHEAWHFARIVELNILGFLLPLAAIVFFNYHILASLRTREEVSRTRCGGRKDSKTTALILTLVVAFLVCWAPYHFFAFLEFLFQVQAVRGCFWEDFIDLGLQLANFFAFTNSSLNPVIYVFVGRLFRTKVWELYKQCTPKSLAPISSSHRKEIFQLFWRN
Description: Cell culture and transfection.
(§1) The cell pellet was suspended in Hanks-HEPES (130 mM NaCl, 5.4 mM KCl, 1.8 mM CaCl2, 0.8 mM MgSO4, 0.9 mM NaH2PO4, 20 mM HEPES, LiCl 50 mM, and 3.25 mM glucose; pH 7.4).
Data were analyzed using GraphPad Prism version 5.04 for Windows (GraphPad software).

U87-MG cells = test: MTT cytotoxicity assay, U87-MG cells; format: cell-based, human; conditions: 24 h treatment, mean ± SEM, n = 3 wells per experiment, 2–3 independent experiments
Description: (§2) Cisplatin, a cytostatic drug commonly used for cancer chemotherapy, was used as a reference compound.
(§3) The colorimetric tetrazolium salt assay with 3-([…]-2-yl)-2,5-diphenyltetrazolium bromide (MTT) was used to evaluate the cytotoxicity potential of the antagonists BK in the cancer cell lines H4, U87-MG, and SHP-77 (see Supporting Information for details)[52].
(§4) Cell lines were seeded at a concentration of 5000 cells/well (H4) and 10000 cells/well (U87-MG, SHP-77) in 96-well plates and incubated for 24 hours. […] These compounds were dissolved in redistilled water and added to the cultures at a final concentration of 0.1%. Twenty-four hours after treatment with the drugs, the MTT assay was performed according to the procedure described previously.^52 MTT solution was added to each well (at a final concentration of 0.15 mg/mL) and then incubated at 37°C for 30 minutes. Formosan crystals were resolved and measured at 570 nm using a 96-well microplate reader (Thermo Lab system Multiscan Spectrum). […] Data were analyzed using GraphPad Prism 7.04 software. Statistical differences were calculated using a one-way analysis of variance (ANOVA) followed by Tukey’s posthoc test. Values of p < 0.05 were considered significant.

SHP-77 cells = test: MTT cytotoxicity assay, SHP-77 cells; format: cell-based, human; conditions: 24 h treatment, mean ± SEM, n = 3 wells per experiment, 2–3 independent experiments
Description: as §2, §3, §4

[1] = system: caspase-3 and PARP cleavage; test: Western blot of caspase-3 activation and PARP cleavage in U87-MG, SHP-77 and H4 cells; format: cell-based, human; conditions: 24 h
Description: To verify whether the cytotoxic effects of the new B1R antagonists are mediated by apoptosis, the activation level of caspase-3, a key enzyme in the apoptosis process, and PARP protein, the caspase-3 substrate, were determined by Western blot analysis.
Cisplatin at 25 µM was used to induce control apoptosis. No significant change in the amount of cleaved PARP or caspase-3 activation was observed after B1R antagonist treatment compared with untreated cells (Fig. 5).
Figure 5 The effects of B1R antagonists and cisplatin on the expression levels of caspase-3 and PARP cleavage in cell lines U87-MG, SHP-77, and H4 were determined by Western blotting. 1. control cells; 2. cisplatin (25 μM); 3. […] BK11 (50 μM). […] Representative Western blot images showing expression of β-actin were used as a reference protein. Each picture represents a vertically cut part of nitrocellulose membranes. The membranes were cut before antibody application, considering the size margin according to the size of the molecular weight marker.
Western blot analysis was performed to evaluate the potential mechanism of cytotoxic activity of the antagonists of BK in cancer cell lines H4, U87-MG, and SHP-77 (see Supporting Information for details). Detection was performed using Pierce ECL Western blotting substrate (Thermo Fisher Scientific) and a Syngene GeneGnomeXRQ chemiluminescence analysis system. […]

H4 cells = test: MTT cytotoxicity assay, H4 cells; format: cell-based, human; conditions: 24 h treatment, mean ± SEM, n = 3 wells per experiment, 2–3 independent experiments
Description: as §2, §3, §4

B1R in U87-MG cell line = test: Functional assay: shift of BK dose-response curve by B1R antagonist, U87-MG cells; format: cell-based, human; conditions: antagonist 10 µM
Description: (§5) In further experiments, the U87-MG, SHP-77, and H4 cell lines were used for the functional assay with BK and the reference B1R antagonist. As shown in Fig. 13S in Supplementary File, all three cell lines expressed the functional B1R protein and its activity according to the mRNA level shown in Fig. 4. The obtained results are consistent with previous findings showing the expression of functional B1R and B2R genes and proteins in human glioblastoma cells U87-MG[32],[33]. In other studies, cellular expression of B1 and B2 receptors was detected in five different subtypes of human lung carcinomas (adenocarcinoma, squamous cell carcinoma, large cell carcinoma, small cell carcinoma, and carcinoid tumors)[34]. In addition, B2R has also been characterized in the cell line SHP-77[35]. However, to our knowledge, this is the first time that we have detected B1R and B2R gene expression in H4 cells of human brain neuroglioma and B1R in SHP-77 cells of human lung carcinoma.
(§6) Figure 13S. […] All three cell lines expressed the functional protein B1R.

B1R in H4 cell line = test: Functional assay: shift of BK dose-response curve by B1R antagonist, H4 cells; format: cell-based, human; conditions: antagonist 10 µM
Description: as §5, §6

B1R in SHP-77 cell line = test: Functional assay: shift of BK dose-response curve by B1R antagonist, SHP-77 cells; format: cell-based, human; conditions: antagonist 10 µM
Description: as §5, §6

mock T-REx 293 cell line = test: IP1 assay in mock T-REx 293 cells without transfection of bradykinin receptors; format: cell-based, human; conditions: various doses of BK
Description: as §1

| Compound | MTT, percentage of control, U87-MG (U87-MG cells; 25 µM) | MTT, percentage of control, U87-MG (U87-MG cells; 100 µM) | MTT, percentage of control, SHP-77 (SHP-77 cells; 25 µM) | MTT, percentage of control, SHP-77 (SHP-77 cells; 100 µM) | MTT, percentage of control, H4 (H4 cells; 25 µM) | MTT, percentage of control, H4 (H4 cells; 100 µM) | also measured |
| --- | --- | --- | --- | --- | --- | --- | --- |
| RPPGFSPFR [BK, Bradykinin] | – | – | – | – | – | – | EC50 (B1R): 1300 nM |
| N.N.[Cl][Pt][Cl] [Cisplatin] | 50.357 ± 4.97 % of control | 32.63 ± 6.934 % of control | 53.631 ± 12.052 % of control | 37.989 ± 11.626 % of control | 25.389 ± 3.71 % of control | 5.809 ± 1.488 % of control | caspase-3 activation and PARP cleavage (Western blot) ([1]; 25 μM, positive control of apoptosis): induction of caspase-3 and processed PARP fragments |
| CC[C@H](C)[C@H](NC(=O)[C@@H](Cc1ccc2ccccc2c1)NC(=O)[C@H](CO)NC(=O)[C@](C)(Cc1ccccc1)NC(=O)CNC(=O)[C@@H]1CCCN1C(=O)[C@@H]1CCCN1C(=O)[C@H](CCCNC(=N)N)NC(=O)[C@H](CCCCN)NC(C)=O)C(=O)O [R 892] (Ac-KRPPG[αMeF]S[d2Nal]I-OH; N-terminus and C-terminus assumed) | – | – | – | – | – | – | shift of BK EC50 after treatment with the B1R antagonist (B1R in U87-MG cell line): over 3 times; EC50 (B1R; T-REx 293/B1R cells, in the presence of EC80 BK (1250 nM), SD ± 66 nM, read-out: EC50 value for decrease of IP1 levels (B1R antagonist)): 69 nM; shift of BK EC50 after treatment with the B1R antagonist (B1R in H4 cell line): < 2 x; shift of BK EC50 after treatment with the B1R antagonist (B1R in SHP-77 cell line): 2,5 x |
| RPPGFSPFR-OH [BK, Bradykinin] | – | – | – | – | – | – | response in IP1 assay, mock cells (mock T-REx 293 cell line): did not respond |
| N=C(N)NCCC[C@H](NC(=O)[C@H](Cc1cccs1)NC(=O)[C@H]1CCCCN1C(=O)[C@H](CO)NC(=O)[C@H](Cc1cccs1)NC(=O)CNC(=O)[C@@H]1C[C@@H](O)CN1C(=O)[C@@H]1CCCN1C(=O)[C@H](CCCNC(=N)N)NC(=O)[C@@H](CCCNC(=N)N)NC(=O)CC12CC3CC(CC(C3)C1)C2)C(=O)O [BK11] | 96.125 ± 1.241 % of control | 81.07 ± 4.542 % of control | 96.421 ± 3.474 % of control | 85.391 ± 5.646 % of control | 94.235 ± 3.538 % of control | 65.668 ± 3.305 % of control | B1R screening, effect in the presence of BK (antagonist mode) (B1R; T-REx 293/B1R cells, 25 μM analog with BK at EC80): antagonistic effect; caspase-3 activation and PARP cleavage (Western blot) ([1]; 50 μM, compared with untreated control cells): no induction of caspase-3 and PARP |
